Results published in patent US11857601B2, “Pharmaceutical composition for cancer treatment comprising fusion protein including IL-2 protein and CD80 protein and anticancer drug” (GI INNOVATION, INC., priority 2020, dated 2024).

Key:
Renca cells = assay: mGI-101 and Lenvatinib in Renca allotransplanted tumor model; type: in vivo, BALB/c mice
Procedure: Renca cells were purchased from ATCC (USA) and cultured in RPMI1640 medium (Gibco) containing 10% FBS (Gibco) and 1% antibiotic/antifungal agent (Gibco). The cultured cells were harvested using trypsin (Gibco) and then suspended in PBS. In order to establish an allotransplanted tumor model, 5×10^6 Renca cells were subcutaneously injected into the back of BALB/c female mice (8-week-old).
A certain period of time after cell inoculation of the tumor grafts of the mice, the tumor volume was measured for animals with no abnormalities in the health condition of the animals, and the mice were randomly selected and assigned, each group including 10 mice.
The death of the mouse, the type of general symptoms, the date of onset, and the severity of symptoms were observed once a day during the test period, and recorded for each subject.
The tumor volume before administration of each subject was set as the value measured at the time of grouping, and the anti-tumor efficacy was evaluated as compared with the vehicle control.
(§1) All statistical calculations were performed using Prism 8.0 (Graph Pad Software Inc, USA). The comparison of tumor volume measurements was made through two-way analysis of variance followed by Tukey's multiple comparison test. A p value of less than 0.05 was considered significant.

BT-474 cells = assay: mGI-101 and Herceptin in BT-474 xenotransplanted tumor model; type: in vivo, human
Description: BT-474 cells were purchased from ATCC (USA) and cultured in RPMI1640 medium (Welgene) containing 10% FBS (Gibco) and 1% antibiotic/antifungal agent (Gibco).
In order to establish a xenotransplanted tumor model for BT-474 cells, it was subcutaneously injected into the left flank of BALB/c nu/nu female mice (7-week-old) by pulling the leather skin of the mice to make a space using a pellet transplant trochar (MP-182, Innovative Research of America, USA) so that it was located under the skin of the left flank.
A certain period of time after cell inoculation of the tumor grafts of the mice, the tumor volume was measured for animals with no abnormalities in the health condition of the animals, and the subjects were selected so that the average of each group reached less than 60-120 mm^3, and the selected animals were assigned as evenly as possible based on tumor volume and body weight, each group including 10 animals.
Clinical symptoms such as a disease and a behavioral change were observed once a day during the test period, and deceased animals were identified, and the mice were sacrificed when the tumor size reached a size of 4,000 mm^3.
(§2) The tumor volume before administration of each subject was set as the value measured at the time of grouping.
as §1

CT-26 cancer cell line = assay: mGI101 in mice transplanted with CT-26 (Exp. Ex. 15)
Procedure: BALB/c mice (female, 7-week-old) purchased from Orient Bio were subjected to an acclimation period of 7 days. Then, 5×10^6 cells of CT-26 cancer cell line (ATCC, USA) were mixed with 0.05 ml of […] ™ matrix phenol red-free (BD), and allotransplantation of the mixture was performed by subcutaneous administration at 0.1 ml in the right dorsal region of the mice. A certain period of time after the cancer cell transplantation, the tumor volume was measured and subjects that reached about 28 mm^3 were selected, and then the selected mice were grouped evenly based on tumor size and body weight, each group including 10 mice. Thereafter, using a disposable syringe (31G, 1 ml), hIgG4 was administered at a dose of 6 mg/kg to a negative control. For experimental groups, mGI101 at a dose of 3 mg/kg, 6 mg/kg, or 12 mg/kg was administered intravenously thereto. A total of three administrations were given once every three days after the first administration. The tumor size was measured daily.

CT26 cells = assay: mGI-101 and Guadecitabine in CT26 allotransplanted tumor model; type: in vivo, BALB/c mice; conditions: for tumor size level vs control: day 10, alone or + Guadecitabine
Description: CT26 cells were purchased from ATCC (USA) and cultured in RPMI1640 medium (Gibco) containing 10% FBS (Gibco) and 1% antibiotic/antifungal agent (Gibco). The cultured cells were harvested using trypsin (Gibco) and then suspended in PBS. In order to establish an allotransplanted tumor model, 5×10^5 of CT26 cells were subcutaneously injected into the right flank of BALB/c female mice (8-week-old) (FIG. 97).
The tumor grafts of the mice were identified about day 7 after cell inoculation, and the mice were randomly assigned based on tumor volume (50-120 mm^3), each group including 13 mice.
Clinical symptoms such as a disease and a behavioral change were observed once a day during the test period, and deceased animals were identified, and the mice were sacrificed when the tumor size reached a size of 4,000 mm^3. The size of the CT26 solid cancer was measured using a tumor 3D scanner (TM900, Peria, Belgium). […] The anti-tumor efficacy was evaluated as compared with the vehicle control. All statistical calculations were performed using Prism 8.0 (Graph Pad Software Inc, USA). The comparison of tumor volume measurements was made through two-way analysis of variance followed by Tukey's multiple comparison test. A p value of less than 0.05 was considered significant.

HCT116 cells = assay: Cancer cell killing, GI-101 and Cetuximab, HCT116 with NK cells; type: cell-based, human; conditions: GI-101 100 nM, Cetuximab 68.6 nM, 24 hours
Description: HCT116 cells were purchased from the Korea cell line bank and cultured in McCoy's 5A medium (ATCC) containing 10% FBS (Gibco) and 1% antibiotic/antifungal agent (Gibco). For use in cancer cell killing test, the cells were harvested using trypsin (Gibco), and then suspended in McCoy's 5A medium, and then dead cells and debris were removed using Ficoll (GE Healthcare Life Sciences) solution. The cells suspended in McCoy's 5A medium were carefully layered on ficoll solution. The cell layer with a low specific gravity formed by centrifuging at room temperature at 350×g for 20 minutes was collected with a pipette, washed with PBS (Gibco), and then centrifuged at room temperature at 350×g for 5 minutes. The separated cell layer was made into a suspension of 2×10^5 cells/mL with FBS-free RPMI1640 medium. […]
In order to identify the effect of killing the cells, a CytoTox Green reagent ([…] ™ CytoTox Green, Satorius) that binds to the DNA of cells to be killed was prepared in 1 μl per 1 mL of RPMI1640 medium containing 5% human AB serum (Sigma). The prepared medium was used for dilution of the test substance, and the effect of killing the cells could be quantitatively identified by staining the cells to be killed when the test substance was co-cultured with cancer cell lines and PBMCs. […]

MDA-MB-231 cells = assay: GI101 and Keytruda in humanized mice xenotransplanted with MDA-MB-231; type: in vivo, human
Procedure: Fetal bovine serum (FBS, 16000-044, Thermofisher scientific, USA), penicillin-streptomycin; 10,000 units/ml penicillin and 10,000 μg/ml streptomycin (15140122, Thermofisher scientific, USA); and RPMI1640 (A1049101, Thermofisher scientific, USA) per 100 ml were mixed and used.
The cells were suspended using Trypsin-EDTA (Cat. 25200-072, Thermofisher scientific, USA). The suspended cells were collected by centrifugation (125×g, 5 minutes) using a centrifuge, transferred to a new medium and a new flask, and passage cultured. The cultured cells were put to a centrifugation tube on the day of cell line transplantation and then collected. […] 8-week-old female NSGb2m (NOD.Cg-B2m^tm1UncPrkdc^scidIl2rg^tm1Wjl/SzJ) mice were purchased from Joongang Bio (Korea) and used for the test. The body weight was measured the next day after the end of the quarantine and acclimation period, and then the human-derived PBMC cell suspension (5×10^6 cells/0.2 ml) prepared for healthy animals was filled into a disposable syringe and administered to the caudal vein of the animals. General symptoms were observed once a day after cell transplantation.
A certain period of time after the cell transplantation, the tumor volume was measured for animals with no abnormalities in the health condition of the animals, and 32 subjects were selected so that the average of each group reached 40 to 80 mm^3. The selected animals were grouped into a total of 4 groups as evenly as possible based on tumor volume and body weight, each group including 8 animals.
General symptoms such as appearance, behavior, and excrement were observed once a day during the observation period, and deceased animals were identified. Body weight was measured on the day of cell line transplantation, twice a week, and on the day of animal sacrifice. The major axis (maximum length, L) and minor axis (perpendicular width, W) of the tumor were measured using a caliper (Digital caliper, mitutoyo, Japan) three times a week during the observation period, and the tumor volume (TV) was calculated by substituting them into the following equations.
as §2

[1] = mGI-101 twice a week (BIW), Lenvatinib daily, 10 mice per group
[2] = BT-474, end of the test, 10 animals per group
[3] = day 42 vs day 21 after tumor transplantation, 8 animals per group

| Substance | number of mice with tumor growth inhibition rate of 30% or more (Renca cells; mGI-101 alone once a week) [mice] | number of mice with tumor growth inhibition rate of 50% or more (Renca cells; mGI-101 alone once a week) [mice] | number of mice with tumor growth inhibition rate of 80% or more (Renca cells; mGI-101 alone once a week) [mice] | number of mice with tumor growth inhibition rate of 30% or more (Renca cells; [1]) [mice] | number of mice with tumor growth inhibition rate of 50% or more (Renca cells; [1]) [mice] | number of mice with tumor growth inhibition rate of 80% or more (Renca cells; [1]) | number of mice with tumor growth inhibition rate of 30% or more (BT-474 cells; [2]) [mice] | number of mice with tumor growth inhibition rate of 50% or more (BT-474 cells; [2]) [mice] | number of mice with tumor growth inhibition rate of 80% or more (BT-474 cells; [2]) | tumor size compared with the vehicle control (BT-474 cells; mGI-101 3 mg/kg i.v. QW: day 28, Herceptin 1 mg/kg i.p. QW: day 14, 18, 21, combination: day 14 to day 28) | Tumor growth inhibition (CT-26 cancer cell line; 6 mg/kg and 12 mg/kg i.v., three administrations, vs negative control (hIgG4)) | survival rate (CT-26 cancer cell line; 6 mg/kg i.v., vs negative control) | tumor size level vs control (CT26 cells; mGI-101 0.6 mg/kg) | tumor size level vs control (CT26 cells; mGI-101 3 mg/kg) | tumor growth inhibitory effect (individual tumor sizes) (CT26 cells; mouse, in vivo) | level of killing cancer cells (HCT116 cells) | tumor growth (MDA-MB-231 cells; GI101 6 mg/kg, Keytruda 5 mg/kg, 4 administrations, compared with the control (hIgG4)) | number of mice with tumor growth inhibition rate of 30% or more (MDA-MB-231 cells; [3]) [mice] | number of mice with tumor growth inhibition rate of 50% or more (MDA-MB-231 cells; [3]) [mice] | number of mice with tumor growth inhibition rate of 80% or more (MDA-MB-231 cells; [3]) [mice] |
| --- | --- | --- | --- | --- | --- | --- | --- | --- | --- | --- | --- | --- | --- | --- | --- | --- | --- | --- | --- | --- |
| mGI101: fusion protein: mouse CD80, Ig hinge, Fc domain, linker, IL-2 variant (2M) (R38A, F42A); SEQ ID NO: 15 | 5 | 2 | 1 | 3 | 1 | no mouse | 5 | 1 | no mouse | statistically significant reduction in tumor size | significant tumor growth inhibition | significant improvement | tended to be lower | statistically significantly lower | exhibited the tumor growth inhibitory effect |  |  |  |  |  |
| GI101: fusion protein: human CD80 fragment, Ig hinge, Fc domain, linker, IL-2 variant (2M) (R38A, F42A); SEQ ID NO: 9 |  |  |  |  |  |  |  |  |  |  |  |  |  |  |  | high level of killing cancer cells | tumor growth inhibition | 5 | 5 | 2 |
